Experimental data as given in patent US12161636B2, “Method of increasing lifespan in mammals” (priority 2023, dated 2024).
“And” between values parts separate entries of the source, which are not always exact repeats. Equal entries are not always repeated. “Also recorded” adds a separate entry of the source.

How the values were obtained:
client-owned dogs = experiment: Randomized, masked, placebo-controlled field pilot study on aging biomarkers (Example 6); type: in vivo, dog
Excerpt: The effects of Pioglitazone aging biomarkers in client-owned dogs can be determined. Approximately 60 dogs are enrolled and randomized into two groups at a 3:1 ratio of treatment to control. Dogs can be screened on visit 1, which is 7 days before the study, and complete screening on visit 2, Day 0 of the study. The treatment can be randomized with dosing beginning on Day 0. The study has participant dogs enrolled for approximately 3 months, with evaluation visits about every 30 days for biomarker measurements and safety evaluations. The HRQL, CFI, insulin, and FFA blood levels are measured.
Fasting insulin. Dogs should be fasted for 12 hours before blood draw for fasting insulin. If the dog is not fasted before the blood collection, the Protocol Deviation: Subject Level eCRF must be completed.
The study will be a multi-site, field pilot study. The design is a randomized, masked, placebo-controlled study in client-owned dogs. The study will contain two treatment groups randomized at a 3:1 ratio in Table 10 below.
The study will enroll an estimated 60 dogs across all study sites. Approximately 45 dogs will be treated with IVP, and approximately 15 dogs will be treated with CP. Additional dogs may be enrolled if initial attrition rates exceed the anticipated level. Likewise, fewer dogs may be enrolled if the study ends before full enrollment.
Drug Administration. IVP/CP will be administered by the Owner to the subject once daily starting at study visit 2 and for the duration of the study. The administration route for IVP and CP is by mouth (PO).

dogs [1] = conditions: cited from earlier work
dogs [2] = conditions: 12 weeks; oral 30, 60, 150 mg/kg/day; cited from earlier work
Beagle dogs [3] = experiment: Pioglitazone started 2 weeks before HFD to prevent metabolic dysfunction; OGTT and HIEG clamp (Example 5); type: in vivo, dog
Excerpt: The purpose of this study was to assess the impact of pioglitazone on HFD-induced insulin resistance, hyperinsulinemia and fatty acid regulation in beagle dogs. We hypothesized that administration of pioglitazone to HFD-fed, metabolically dysfunctional dogs would (1) upregulate adiponectin levels (2) protect whole body insulin sensitivity as measured by an oral glucose tolerance test (OGTT) and hyperinsulinemic euglycemic clamp (HIEG) and (3) prevent increased deleterious fatty acid levels in the face of a HFD.
Study Design: Twenty four animals (between 1 and 2 years old) were acclimated for at least 2 weeks and surgically implanted with a femoral artery catheter under anesthesia. 2 baseline tests were performed before any treatment: an OGTT and a HIEG clamp.
The dogs were then randomly assigned to one of 3 groups: a placebo group (n=8) that received an empty capsule daily, a group that received 1 mg/kg pioglitazone in the form of a 15 mg pill (Dose 1, n=8), a group that received 2 mg/kg pioglitazone in the form of […] (Dose 2, n=8). Pioglitazone pills (Actos, Teva Pharmaceuticals, NJ) were given daily immediately before feeding and flushed with 5 mL of water.
Two weeks after the treatment started, all the animals were put on a HFD (Research Diet 5SQ1, Test Diet from Purina). On Day 46 and 56 after the start of the pioglitazone treatment, the animals were given an OGTT and a HIEG clamp respectively to compare to their baseline metabolic response. On day 46 and 56, placebo and pioglitazone were given one hour before the gavage and one hour before the start of the somatostatin infusion. The same amount of glucose as the initial OGTT study was given and the same rate of insulin and hormone was given during the clamp despite the gain weight of the animal, because we know that the animals mainly gain fat, a tissue that is unresponsive to the level of insulin.
Additionally, every 2 weeks, blood was harvested from each animal for multiple chemical measurements (Adiponectin, Superchem panel (performed by Antech Diagnostics)) before pioglitazone administration and feeding. Pioglitazone was also measured every 2 weeks in the serum, harvested 1 hour after pill administration and feeding.

Beagle dogs [4] = test system: Beagle dogs
Method: This 17-week HFD design, metabolic reversal study was conducted on 4 groups of 12 Beagle dogs each. All dogs included in the study were males, aged 3-7 years, weighing 12.05-22.95 kg. After 63 days (9 weeks) of normal diet or HFD-feeding, Placebo was administered daily by mouth to Groups 1 and 2 while pioglitazone was administered daily by mouth to Groups 3 and 4.
Animals were fed their daily food ration (g) as a split ration. Each feeding (AM or PM) consisted of approximately half the animal's daily food ration and was offered approximately 4 hours apart. Dogs were given approximately 2 hours to consume each ration and any remaining food was weighed back for each feeding.
All dogs were fed ad libitum “normal diet” (ND) consisting of 55% fat for all baseline measurements prior to study start. Prior to the study start, dogs were randomly assigned to either ND or HFD consisting of 74% fat, on which they remained for approximately 9 weeks. After 9 weeks, HFD-fed animals were further randomized to treatment groups prior to dosing based on fasting insulin levels as the primary factor and total body weight as the secondary factor. Dogs in the ND group were continued on ND through the conclusion of the study. Blood collections for Chemistry, Haematology, Triglycerides, Cholesterol, Metabolomics and Lipidomics, efficacy Biomarkers (Adiponectin, Fasting Insulin, and Leptin), pioglitazone pharmacokinetics, Cytokines (IL-6 and TNFa) and Non-esterified fatty acids (NEFA) were performed throughout the study to assess the diet and drug-related effects on markers of safety and metabolic function. Baseline (Day −56) and Pre-Treatment (Day 0) readings of each parameter were compared to Treatment (Day 57) readings.
OGTTs were performed during the Pre-Treatment (Day −14) and Treatment (Day 42) phases to assess glucose and insulin kinetics and insulin sensitivity. OGTTs were carried out as previously described by Coate et al., 2010. Briefly, dogs were fasting overnight prior to conducting the procedure. Blood was sampled and serum and plasma separated at −20 and 0 minutes pre-glucose bolus to establish fasting glucose and insulin values. At 0 minutes (t=0), a glucose bolus (0.9 g/kg, p.o.) was delivered. Blood was collected at 5, 10, 20, 30, 40, 50, 60, 70, 80, 90, 120, 180 and 240 minutes post-glucose bolus. Serum was then analyzed for glucose and plasma was analyzed for insulin levels at each time point.
Dogs were fasted for a minimum of 12 hours prior to the first blood draw of each sampling day. D2O and ^2H2^18O were prepared with autoclaved glassware and utensils, weighed out separately, and drawn into separate syringes. Body weights were taken the day of sampling and prepared D2O and ^2H2^18O were drawn into separate syringes per animal and weighed to the third decimal place prior to administration. Two milliliters (mL) of blood was collected prior to administration of 50 mg/kg of 99% D2O and 150 mg/kg of 97% ^2H2^18O via oral syringe. Blood samples were then collected at 2 h, 24 h, 72 h, 120 h and 168 h after initial D2O+^2H2^18O administration. Following collection, blood was plasma separated in K2EDTA tubes and were stored at −80° C. until analysis.
Individual and summary statistics, arithmetic means, percentage change and within and between group comparisons were done.
Subjects were administered Pioglitazone treatment, and fatty acids analysis was performed from blood samples of subjects. Fatty acids were detected and analyzed by species and quantified. Additionally, the effects of Pioglitazone on each different species of fatty acids were analyzed, as shown in FIG. 6B (Palmitic Acid), FIG. 6C (Linoleic Acid), and FIG. 6D (Oleic Acid).

dogs [5] = conditions: dog, in vivo, cited from earlier work
[6] = subjects 001-SAR-007 and 003-BAK-018
[7] = beagle dogs on HFD, both doses, Day 56, excluding 4 dogs with non-comparable insulins
[8] = beagle dogs on HFD, clamp experiments
[9] = HFD-fed Beagle dogs, 1 or 2 mg/kg/day by mouth
[10] = HFD-fed Beagle dogs, vs HFD-fed placebo group

CCc1ccc(CCOc2ccc(CC3SC(=O)NC3=O)cc2)nc1.Cl (stereo not shown) [pioglitazone]
TBili (client-owned dogs; Subject 001-SAR-007, less than one month after starting, screening 0.5): 0.2 mg/dL
insulin (client-owned dogs; Subject 001-SAR-007, less than one month after starting, screening 76.8, reference range 5.2-41.5): 16.2 uIU/mL
ALP (client-owned dogs; Subject 001-SAR-007, less than one month after starting, screening 177, reference range 5-160): 88 U/L
AST (client-owned dogs; Subject 001-SAR-007, less than one month after starting, screening 182, reference range 16-55): 22 U/L
ALT (client-owned dogs; Subject 001-SAR-007, less than one month after starting, screening 469, reference range 18-121): 48 U/L
ALP (client-owned dogs; Subject 003-BAK-016, screening 241 U/L, reference range 5-160 U/L): remained elevated
insulin (client-owned dogs; Subject 003-BAK-016, subsequent visits before visit 6, screening 96.6, reference range 5.2-41.5): 62.2 uIU/mL and 52.9 uIU/mL
insulin (client-owned dogs; Subject 003-BAK-016, visit 6, 90 days later, screening 96.6): 42.3 uIU/mL
insulin (client-owned dogs; Subject 003-BAK-018, visit 4 (approximately day 30), screening 66.3, reference range 5.2-41.5): 15.3 uIU/mL
ALP (client-owned dogs; Subject 003-BAK-018, visit 4 (approximately day 30), screening 1603, reference range 5-160): 774 U/L
liver enzymes (client-owned dogs; all 3 dogs with elevated baseline insulin): reduction in liver enzymes
average reduction in insulin levels (client-owned dogs; client-owned dogs, baseline to day 90, not statistically significant (p=0.538)): 2.35 uIU/mL
average reductions in insulin levels compared with control group (client-owned dogs; client-owned dogs, p=0.171): trending lower
gross lipemia in the blood samples (client-owned dogs; [6]): eliminating gross lipemia
triglycerides (client-owned dogs; [6]): reduction or normalization
insulin levels in dogs with elevated baseline insulin levels (client-owned dogs; three pioglitazone-treated dogs): notable effect
nontoxic dose (dogs [1]; 26 weeks, oral 0, 1, 3, 10 mg/kg/day): be 3 mg/kg/day.
hydropericardium (dogs [1]; dog, in vivo, 10 mg/kg): hydroperi-
leukocytes (dogs [1]; dog, in vivo, 10 mg/kg): increase in platelet and leukocytes
platelet (dogs [1]; dog, in vivo, 10 mg/kg): increase in platelet and leukocytes
frequency of clinical signs (dogs [2]): The frequency appeared dose-dependent.
insulin response during the OGTT (Beagle dogs [3]; beagle dogs on HFD, 1 mg/kg and 2 mg/kg daily, Day 46): reduced compared to the placebo group
glucose metabolism (Beagle dogs [3]; beagle dogs on HFD, OGTT): normalize glucose metabolism without increasing insulin secretion
GIR (glucose infusion rate), HIEG clamp (Beagle dogs [3]; [7]): able to overcome the defect
Rd (rate of glucose disappearance), HIEG clamp (Beagle dogs [3]; [7]): able to overcome the defect
fasting FFA levels (Beagle dogs [3]; [8]): reduced
inhibition of lipolysis (Beagle dogs [3]; [8]): improved
circulating adiponectin (Beagle dogs [3]; beagle dogs, 1 mg/kg and 2 mg/kg daily, by Day 14, vs placebo group): significant increase; also recorded: larger and more sustained than in the placebo group
caloric intake (Beagle dogs [4]; HFD-fed Beagle dogs): without any effects
food consumption (Beagle dogs [4]; HFD-fed Beagle dogs): without any effects
leptin levels (Beagle dogs [4]; HFD-fed Beagle dogs): without any effects
HFD-induced elevation of SFA (Beagle dogs [4]; [9]): reversed HFD-induced elevation of SFA
palmitic acid (Beagle dogs [4]; [9]): decreases in palmitic acid
levels of metabolically deleterious fatty acids (SFAs, palmitic acid, linoleic acid, oleic acid) (Beagle dogs [4]; HFD-fed Beagle dogs, 1 or 2 mg/kg/day by mouth, GC-MS): dose dependently regulates
glucose excursion during glucose tolerance test (Beagle dogs [4]; HFD-fed Beagle dogs, 1 or 2 mg/kg/day by mouth, OGTT Day 42): no impact
adiponectin (Beagle dogs [4]; HFD-fed Beagle dogs, 1 or 2 mg/kg/day by mouth, biomarker of target engagement): significantly upregulates
fasting glucose measurements (Beagle dogs [4]; HFD-fed Beagle dogs, pioglitazone 1 or 2 mg/kg/day by mouth after 9 weeks HFD): no impact
size of adipocytes in the viscera (histological examination) (Beagle dogs [4]; HFD-fed Beagle dogs, visceral and subcutaneous adipose tissue): decreased the size of adipocytes in the viscera
body composition: fat mass (Beagle dogs [4]; [10]): increases in fat mass
circulating cholesterol (Beagle dogs [4]; [10]): significantly reduced
circulating triglycerides (Beagle dogs [4]; [10]): significantly reduced
fatty acid profiles (Beagle dogs [4]; [10]): normalized detrimental fatty acid profiles
tolerability of administration (Beagle dogs [4]; dog, in vivo): tolerated Placebo/pioglitazone administration well
serum albumin (dogs [5]; 10 mg/kg/day): Decrease in serum albumin and protein
serum protein (dogs [5]; 10 mg/kg/day): Decrease in serum albumin and protein
hematocrit (dogs [5]; 10 mg/kg): Reduction in hematocrit in both sexes
